Assay results taken from patent US7385063B2, “Method for preparing imidazole derivatives” (Chugai Seiyaku Kabushiki Kaisha, priority 2001, dated 2008).

test system: not given; assay: not given; settings: not given

| melting point | SMILES |
| --- | --- |
| 163 to 164 °C (dec.) | O=C(NCc1ccccc1)Nc1ccc(C(O)(C(F)(F)F)C(F)(F)F)cc1 [Example 3, N-benzyl-N′-{4-[2,2,2-trifluoro-1-hydroxy-1-(trifluoromethyl)ethyl]phenyl}urea] |

target: T1, malonyl-CoA decarboxylase prepared from rat heart (Rattus norvegicus, UniProt Q920F5); assay: In vitro MCD inhibitory assay (spectrophotometric, 96 well); type: biochemical; settings: concentration causing 50% inhibition of MCD activity, read-out: IC50 of the MCD inhibitors
T1 construct: malonyl-CoA decarboxylase prepared from rat heart; from tissue; host or cells: rat heart
T1 sequence (Q920F5 39-492): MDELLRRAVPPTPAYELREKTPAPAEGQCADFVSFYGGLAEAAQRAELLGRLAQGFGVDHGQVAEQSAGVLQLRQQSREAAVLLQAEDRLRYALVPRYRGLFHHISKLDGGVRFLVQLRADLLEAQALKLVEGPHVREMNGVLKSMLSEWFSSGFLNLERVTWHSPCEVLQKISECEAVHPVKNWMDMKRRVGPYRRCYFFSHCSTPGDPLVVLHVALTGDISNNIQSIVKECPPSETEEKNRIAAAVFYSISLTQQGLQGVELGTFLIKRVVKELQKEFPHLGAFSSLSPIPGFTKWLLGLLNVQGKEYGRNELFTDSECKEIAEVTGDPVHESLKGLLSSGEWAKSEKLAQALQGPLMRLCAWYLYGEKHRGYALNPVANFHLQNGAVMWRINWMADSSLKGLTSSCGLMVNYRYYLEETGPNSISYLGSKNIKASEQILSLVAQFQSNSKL
Description: The following reagents are added into a 96 well titer plate: Tris-HCl buffer, 20 μL; DTE, 10 μL; I-malate, 20 μL; NAD, 10 μL; NADH, 25 μL; water, 80 μL; malic dehydrogenase, 5 μL. The contents are mixed and incubated for 2 min followed by the addition of 5 μL of citrate synthase.

| IC50 [nM] | SMILES |
| --- | --- |
| 223 | Cc1cc(-c2ccncc2)n(-c2ccc(C(O)(C(F)(F)F)C(F)(F)F)cc2)n1 [Example 8-28] |
| 9 | CCN(CCC#N)C(=O)N(CCCCC(=O)O)c1ccc(C(O)(C(F)(F)F)C(F)(F)F)cc1 [Example 4-94] |
| 7 | O=C(O)CCCCN(C(=O)c1ccncc1)c1ccc(C(O)(C(F)(F)F)C(F)(F)F)cc1 [Example 1-3] |
| 604 | O=S(=O)(Nc1ccc(C(O)(C(F)(F)F)C(F)(F)F)cc1)N1CCCCC1 [Example 2-5] |
| 36 | O=C(N1CCOCC1)N(CCCF)c1ccc(C(O)(C(F)(F)F)C(F)(F)F)cc1 [Example 4-130] |
| 557 | OC(c1ccc(-n2nc(-c3ccccn3)cc2-c2ccccn2)cc1)(C(F)(F)F)C(F)(F)F [Example 8-4] |
| 18 | N#Cc1cccc(CS(=O)(=O)c2nccn2-c2ccc(C(O)(C(F)(F)F)C(F)(F)F)cc2)c1 [Example 6-1] |
| 10 | O=C(N1CCOCC1)N(CCCCc1nnn[nH]1)c1ccc(C(O)(C(F)(F)F)C(F)(F)F)cc1 [Example 4-114] |

test system: human breast cancer cells; assay: not given; settings: breast carcinoma cells; Pizer et al.; cited from earlier work

| SMILES | malonyl-CoA level, of the control [%] |
| --- | --- |
| CCCCCCCCCCCCCCOc1ccc(C(=O)O)o1 [TOFA, 5-(tetradecyloxy)-2-furoic acid] | 60 |
